Patent publication EP0402733A2, “Agent for the treatment of central nervous system illnesses and for the enhancement of cerebral blood flow” (Dr. Karl Thomae GmbH, priority 1989, dated 1990)

Assays:
[1] = target: muscarinische Rezeptoren der Pia mater des Rindes; experiment: Inhibition of 3H-NMS binding to muscarinic receptors of bovine pia mater homogenate; set-up: species or system Rind; conditions: 0,3 nM [³H]NMS, 45 min, room temperature
Description: Die Pia-Gefäße von Rinder-Hirnen, erhalten vom lokalen Schlachthof, wurden präpariert und von Blutresten gereinigt. Je 0,5 g-Portionen wurden bei 8°C bis zur weiteren Verwendung gelagert. Zur Homogenatgewinnung wurden 0,5 g Pia-Geäße mittels eines Gewebehackers zerkleinert, in 60 ml HEPES-Puffer (20 mM HEPES, 10 mM MgCl₂, 100 mM NaCl, pH 7,50) aufgenommen, mit einem Ultra-Turrax homogenisiert und 20 min. bei 0°C mit 48000 x g zentrifugiert. Das Pellet wurde erneut mit einem Ultra-Turrax homogenisiert, durch Mull filtriert und mit HEPES-Puffer auf eine Verdünnung von 1:140 bezogen auf das Feuchtgewicht der Gefäße verdünnt.
0,3 nM [³H]NMS und steigende Konzentrationen des Antagonisten wurden mit dem Homogenat in einem Gesamtvolumen von 0,52 ml für 45 min. bei Raumtemperatur inkubiert. Der Inkubationsansatz wurde mit Hilfe eines Scatron Cell Harvesters über Glasfaser-Filtermatten filtriert und zweimal mit eiskalter physiologischer Kochsalzlösung gewaschen. Die Filter-gebundene Radioaktivität wurde in einem Flüssigkeitsszintillationszähler bestimmt. Als unspezifische Bindung wurde die gebundene Radioaktivität in Gegenwart von 10⁻⁶M (-)-Chinuclidinyl-benzilat definiert.

[2] = tested on: inhibitorischen Autorezeptoren in hippocampalem Gewebe; experiment: Transmitter release study: in vitro acetylcholine release from electrically stimulated hippocampal slices, antagonism of carbachol; format: biochemical, Ratten
Description: Die Versuche zur in-vitro Freisetzung von Acetylcholin aus hippocampalen Gewebeschnitten wurden in Analogie zu Anordnungen durchgeführt, die für die Freisetzung von 5-HT aus Hypothalamus- bzw. Hippocampus-Gewebe beschrieben sind (vgl. M.H. Richards, Naunyn Schmiedeberg's Arch. Pharmacol. 329, 359-366 (1985) und T.J. Feuerstein, G. Hertting und R. Jackisch, Europ. J. Pharmacol. 107, 233-242 (1985)).
Männliche Ratten (Stamm Chbb:Thom, Gewicht 200 bis 300 g) wurden ohne Vorbehandlung dekapitiert; das gesamte Gehirn wurde sofort entnommen und unter Eiskühlung zerlegt. Gemäß den oben beschriebenen Verfahren wurde der Hippocampus in 0,4 mm dicke Schnitte mit Hilfe eines McIlwain-Gewebehackers geschnitten. Die Gewebeschnitte wurden 30 Minuten lang bei 37°C vorincubiert in Gegenwart von 0,05 mM ³H-Cholin in einem Krebs-Henseleit Puffer der folgenden Zusammensetzung: 120 mM NaCl, 4,8 mM KCl, 1,3 mM CaCl₂, 1,2 mM KH₂PO₄, 1,2 mM MgSO₄ und 25 mM NaHCO₃. Der Puffer enthielt zusätzlich 2 g Glucose und 100 mg EDTA. Der Puffer wurde mit Natronlauge auf einen pH-Wert von 7,4 bei 20°C eingestellt. Alle Lösungen wurden kontinuierlich mit 95 % O₂ und 5 % CO₂ gesättigt. Die Gewebeschnitte wurden daraufhin gespült, jeder Gewebeschnitt wurde jeweils willkürlich auf 12 Superfusionseinheiten verteilt und mit dem Puffer bei 37°C bei einer Fließgeschwindigkeit von 1 ml/min überspült. […]

[3] = target: T1, muscarinischen Rezeptoren des Cortex (Rezeptoren vom M₁-Subtyp) (Rattus norvegicus, UniProt P08482); experiment: 3H-NMS binding study at muscarinic receptors of the cortex (cerebral cortex homogenate); set-up: species or system Sprague-Dawley-Ratten; conditions: 0,3 nM ³H-NMS, Großhirnrinde homogenate 1:3000, 30°C, 45 min
T1 sequence (P08482 1-460): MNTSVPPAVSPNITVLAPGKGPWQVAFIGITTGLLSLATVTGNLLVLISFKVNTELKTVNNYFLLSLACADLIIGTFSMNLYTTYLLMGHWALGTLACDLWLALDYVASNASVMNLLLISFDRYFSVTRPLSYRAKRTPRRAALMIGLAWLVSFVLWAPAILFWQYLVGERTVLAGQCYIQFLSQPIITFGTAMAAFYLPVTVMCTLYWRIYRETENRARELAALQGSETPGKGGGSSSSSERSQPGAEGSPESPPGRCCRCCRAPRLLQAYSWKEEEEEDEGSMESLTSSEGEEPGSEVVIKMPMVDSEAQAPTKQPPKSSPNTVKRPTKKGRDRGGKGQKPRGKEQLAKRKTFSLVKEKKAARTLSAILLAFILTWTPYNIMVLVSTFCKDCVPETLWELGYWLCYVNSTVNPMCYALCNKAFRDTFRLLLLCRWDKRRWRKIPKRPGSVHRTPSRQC
Description: Als Organspender dienten männliche Sprague-Dawley-Ratten mit 180-220 g Körpergewicht. Nach Entnahme der Großhirnrinde wurden alle weiteren Schritte in eiskaltem Hepes-HCl-Puffer (pH 7,4; 100 m molar NaCl, 10 m molar MgCl₂) vorgenommen. Das Gesamtherz wurde mit einer Schere zerkleinert. Alle Organe wurden abschließend in einem Potter homogenisiert.
Für den Bindungstest wurden die Organhomogenate in folgender Weise verdünnt:
Die Inkubation der Organhomogenate erfolgte bei einer bestimmten Konzentration des Radioliganden und einer Konzentrationsreihe der nichtradioaktiven Testsubstanzen im Eppendorf-Zentrifugenröhrchen bei 30°C. Die Inkubationsdauer betrug 45 Minuten. Als Radioligand wurde 0,3 n molar ³H-N-Methylscopolamin (³H-NMS) verwendet. Die Inkubation wurde durch Zugabe von eiskaltem Puffer mit nachfolgender Vakuumfiltration beendet. Die Filter wurden mit kaltem Puffer gespült und ihre Radioaktivität bestimmt. Sie repräsentiert die Summe von spezifischer und unspezifischer Bindung von ³H-NMS. Der Anteil der unspezifischen Bindung wurde defi niert als jene Radioaktivität, die in Anwesenheit von 1 µ molar Chinuclidinylbenzilat gebunden wurde. Es wurden immer Vierfachbestimmungen vorgenommen. Die IC₅₀-Werte der nichtmarkierten Testsubstanzen wurden graphisch bestimmt. […]

`CCN(CCCC(=O)N1CCC(C(=O)N(C)C)CC1)C(C)Cc1ccc(OC)cc1` (racemic) [Substanz I, (±)-1-[4-[Ethyl[2-(4-methoxyphenyl)-1-methylethyl]amino]-1-oxobutyl]-N,N-dimethyl-4-piperidincarboxamid] was tested. Which “-log IC₅₀ (M)” value [1] did it give?
Its value is 8,2.

What about the “ACh-Release am Hippocampus-Gewebe (pA₂)” value ([2]; rat hippocampal slices, electrical stimulation, agonist Carbachol) of the same molecule?
Its value is 8,7.

And the “Verhältnis von IC₅₀ (Cortex) zu pA₂(ACh-Release)” value ([2]; selectivity ratio: cortex (M₁) binding versus ACh release in hippocampus)?
Its value is 25.

And the “Rezeptor-Bingungstests Cortex -log IC₅₀ (M)” value [3]?
Its value is 7,3.
